Source: patent US7053194B2, “Compositions and methods for p53-mediated repression of gene expression” (Fox Chase Cancer Center, priority 1999, dated 2006)
Square brackets hold non-standard residues; d marks the D form. Peptide text beside a SMILES is read from it. Nle = CCCC[C@H](N)C(=O)O

Columns and labels:
MCF-7 cells [1] = assay: Immunoprecipitation-western analysis of p53 and p53-mSin3a complexes; assay type: cell-based, human; conditions: MCF-7, 50 uM ALLN, 2 hours
Description: (§1) Sub-confluent cultures of MCF 7 and A2780 cells were treated with 100 nM trichostatin A (TSA, Sigma)for 2 hours, followed by incubation with 0.5 ug/ml adriamycin (doxorubicin, Sigma) for the indicated timepoints. Va15 cells grown at 39 degrees were treated with 100 nM TSA for two hours, followed by temperature shift to 32 degrees for 12 hours. p53 induction was monitored by western analysis of 100 ug protein as described (Murphy et al., Genes & Devel. 10:2971–2980, 1996), using 0.1ug/ml DO-1 (Ab-6, Calbiochem) or 421 (Ab-1, Calbiochem). MDM2 induction was monitored using the monoclonal antibody 2A10, kindly provided by Arnold Levine (Rockefeller University). For UV treatments, cells were irradiated with 4 J/m2 of UV-C with a Spectroline X series ultraviolet lamp, and output was monitored with a traceable UV light meter (Fisher Scientific). For ALLN treatment, MCF-7 cells were treated with 50 uM ALLN (calpain I inhibitor, Sigma) made in DMSO (dimethyl sulfoxide, Sigma) or with DMSO alone for 2 hours prior to harvesting.
Sub-confluent cultures of cells were harvested and lysed in NP-40 buffer supplemented with protease inhibitors (1 mM PMSF, 10 ug/ml pepstatin A, 10 ug/ml aprotinin, and 5ug/ml leupeptin). Protein concentrations were determined by the method of Bradford (BioRad). Equal ug amounts of protein (between 2.0 and 3.0 mg) were immunoprecipitated with 1 ug of each antibody, except for Va15 immunoprecipitations, which used 1000 ug protein, as described (Murphy et al., Genes & Devel. 10:2971–2980, 1996). For p300, antibody N15 (Santa Cruz Biotechnology) and AB-1 (Calbiochem) yielded similar results. Each IP was washed twice in NP-40 buffer (Wu, et al., Genes & Devel. 7:1126–1132, 1993), followed by 2 washes in RIPA buffer (50 mM Tris pH 7.4/150 mM NaCl/1% Triton X 100/0.1% SDSI 1% Na deoxycholate). Immunoprecipitations were run on 7.5–10% SDS-PAGE gels and transferred overnight onto Immuno-Blot PVDF membrane (BioRad). […]
These complexes persisted under stringent washing conditions (RIPA buffer washes, see Materials and Methods), and were not present using control antisera (rabbit IgG, lane 1). […] We next analyzed the p53-mSin3a interaction following post-translational stabilization of p53 mediated by DNA damaging agents. […]
We next analyzed the time-course of the p53-mSin3a interaction following exposure of cells to the DNA damaging agent adriamycin (doxorubicin). Both p53-mSin3a and p53 p300 complexes were monitored by IP-western analysis in a time course following adriamycin treatment of MCF-7 cells. As a control, p53 was immunoprecipitated using polyclonal antisera generated against full-length p53 (Santa Cruz Biotechnology). p53 levels were also assessed at each time point by western analyses (data not shown). […]

Va15 cells [2] = assay: Northern analysis of Map4 mRNA after p53 induction by temperature shift; assay type: cell-based, murine; conditions: temperature shift to 32 degrees (wt p53), 100 nM TSA
Description: as §1
Total RNA was isolated from cells using CsC1 purification (Murphy et al., Genes & Devel. 10:2971–2980, 1996) or using Trizol, as per the manufacturer (Gibco/BRL). Northern analyses were performed as described (Murphy et al., Genes & Devel. 10:2971–2980, 1996). […] Autoradiographs were quantitated using NIH image software. […]

Va15 cells [3] = assay: Flow cytometric analysis of cell cycle distribution; assay type: cell-based, murine; conditions: Va15 cells cultured at 32 degrees, TSA treatment, data not shown
A2780 cells = assay: Northern analysis of stathmin mRNA after adriamycin treatment; assay type: cell-based, human; conditions: A2780, co-incubation with TSA, data not shown
Description: as §1
(§2) Total RNA was isolated from cells using CsC1 purification (Murphy et al., Genes & Devel. 10:2971–2980, 1996) or using Trizol, as per the manufacturer (Gibco/BRL). Northern analyses were performed as described (Murphy et al., Genes & Devel. 10:2971–2980, 1996). Probes for Northerns were radio labeled using random primers (Prime-It-II, Stratagene) and α^32P dCTP (NEN). Autoradiographs were quantitated using NIH image software. The average values from three independent experiments were plotted onto bar graphs following normalization to GAPDH.
(§3) To extend these observations, the human tumor derived cell lines MCF7 (breast carcinoma)and A2780 (ovarian carcinoma) were analyzed following treatment with adriamycin to activate the endogenous, wild type p53 protein. Because of difficulties detecting human Map4 message, we analyzed the mRNA levels of stathmin (also called oncoprotein 18). We recently identified stathmin as a p53-repressed gene. A time course of treatment of MCF-7 cells with the DNA-damaging agent adriamycin (doxorubicin, DOX) results in approximately 30% reduction of stathmin RNA levels after 8 hours and 75% reduction after 24 hours. We chose to focus further on the 12 hour timepoint of adriamycin treatment, where 50% repression of stathmin was evident, in order to limit the toxicity sometimes associated with TSA (Yoshida et al., J Biol Chem 265:17174–17179, 1990). […] The results of three independent experiments indicate that the repression of stathmin expression evident after 12 hours of adriamycin treatment is completely abrogated by incubation with TSA. In contrast, neither the post-translational stabilization of p53 by adriamycin (DOX) nor the induction of the p53 response genes mdm2 and p21/waf1 were affected by TSA. […] We have performed identical experiments in A2780 cells (ovarian carcinoma, wt p53).

MCF-7 cells [4] = assay: as above; assay type: cell-based, human
Description: as §1, §2, §3

[5] = system: H1299 human lung adenocarcinoma; assay: Northern analysis of stathmin mRNA in p53-null cells; assay type: cell-based; conditions: H1299, null for p53
Vm10 cells [6] = assay: AMC caspase assay specific for caspase 3 (apoptosis); assay type: cell-based, murine
Description: Apoptosis was quantitated using the AMC caspase assay specific for caspase 3 (Pharmingen). Vm10 cells were grown at 39 degrees or temperature-shifted to 32 degrees for 24 hours in the presence or absence of 100 nM trichostatin A (TSA). Vm10 cells at 39 degrees were treated with staurosporine (Calbiochem) at 100 nM, or dilution vehicle (dimethyl sulfoxide), or tumor necrosis factor alpha plus cycloheximide (10 ng/mL TNFα, RD Systems, plus 40 ug/mL cycloheximide, Sigma). Cells were harvested, lysed, and lysate was monitored for the caspase-3-dependent hydrolysis of the fluorogenic substrate Ac-DEVD-AMC, according to protocols derived from the manufacturer (Pharmingen). As a control for non-specific proteolysis, lysates from 39 degrees and 32 degrees were also assayed in the presence of the caspase-3 inhibitor Ac-DEVD-CHO (N-acetyl-Asp-Glu-Val Asp-aldehyde, Pharmingen). Fluorescence emissions were quantified on a spectrofluorometer (VersaFluor Cuvette Fluorometer) with excitation wavelength of 360 nm. and emission of 460 nm. The data presented represent duplicate readings of the averaged values from two (TNFα and staurosporine) or three (temperature shift) independent experiments.
In order to assess the contribution of p53-mediated repression to apoptosis, we utilized the cell line Vm10. This murine cell line contains a stably-transfected p53 gene encoding a temperature-sensitive protein, as well as a constitutively expressed c-myc proto-oncogene; the characteristics of this line, and its ability to undergo apoptosis at 32 degrees, have been described (Chen et al., Mol Med 1:142–152, 1996). Temperature shift and wt p53 induction of these cells results in a significant increase in caspase-3 dependent AMC-DEVD hydrolysis, a read-out for apoptosis, as measured in a spectrofluorometric assay. […] Therefore, the ability of TSA to inhibit apoptosis is specific for p53-dependent apoptosis.

Vm10 cells [7] = assay: Flow cytometry of sub-G1 population; assay type: cell-based, murine; conditions: Vm10 at 32 degrees (wt p53), 100 nM TSA, data not shown
Va15 cells [8] = assay: Western analysis of survivin in nocodazole-arrested cells; assay type: cell-based, murine; conditions: Va15 at 39 degrees, nocodazole alone, twenty-four hours
Description: Western analysis was performed essentially as described (Murphy et al., 1999). Briefly, subconfluent cells were harvested and lysed in RIPA buffer (50 mM Tris at pH 7.4, 150 mM NaCl, 1% Triton X-100, 0.1% SDS, and 1% sodium deoxycholate) supplemented with protease inhibitors (1 mM PMSF, […], […], and […]). Protein concentrations were determined using the Bio-Rad Dc Protein Assay (Bio-Rad). Equal amounts of protein (between 50 and 120 ugs) were run on 10% or 12% SDS-polyacrylamide gels and transferred overnight onto PVDF membrane (Bio-Rad). Western blots were incubated in antibody in 5% nonfat dry milk in phosphate-buffered saline supplemented with 0.2% Tween 20 (PBST). Blots were incubated with primary antibody at the following dilutions: p53 Ab-6 (Calbiochem) 1:1000, actin, AC-15 (Sigma) at 1:5000, p21/waf1 (Calbiochem) 1:1000 and survivin (Novus) 1:1000. Blots were washed with PBST and incubated in horseradish peroxidase-linked secondary antibody (Jackson ImmunoResearch Laboratories) and developed via the chemiluminescence protocol provided by the manufacturer (NEN).
Va15 cells (temperature-sensitive p53 which is wild type at 32 degrees) were grown at 39 degrees (mutant p53, asynchronous growth), and arrested in G2/M following twenty-four hours of nocodazole treatment. […]

CCCC[C@@H](C=O)NC(=O)[C@H](CC(C)C)NC(=O)[C@H](CC(C)C)NC(C)=O [ALLN] (Ac-Leu-Leu-[Nle]-aldehyde)
increase in p53 protein (MCF-7 cells [1]): approximately 4 fold | increase in the p53-mSin3a complex (MCF-7 cells [1]): undetectable increase in the p53-mSin3a complex

CC(/C=C/C(=O)NO)=C\[C@@H](C)C(=O)c1ccc(N(C)C)cc1 [TSA, trichostatin A]
Map4 RNA levels, % of starting levels (Va15 cells [2]): approximately 80% | cell cycle distribution (Va15 cells [3]): did not alter the cell cycle distribution | effect on adriamycin-induced repression of stathmin (A2780 cells): abrogate completely this repression | effect on stathmin levels, TSA alone (MCF-7 cells [4]; MCF-7, 100 nM TSA alone): undetectable effects on stathmin levels | effect on reduction of stathmin levels following adriamycin treatment (MCF-7 cells [4]; MCF-7, 100 nM TSA plus adriamycin 12 hours): completely abrogate the reduction of stathmin levels | effect on stathmin levels [5]: neither TSA nor adriamycin had any effect on stathmin levels | inhibition of caspase-3-dependent AMC hydrolysis (Vm10 cells [6]; Vm10 at 32 degrees (wt p53), 100 nM TSA, 24 hours): greater than 4 fold | inhibition of apoptosis induced by staurosporine or tumor necrosis factor alpha (Vm10 cells [6]; Vm10 at 39 degrees (mutant p53), TSA treatment): unable to significantly inhibit apoptosis | sub-G1 population (Vm10 cells [7]): reduces the sub-G1 population

COC(=O)Nc1nc2ccc(C(=O)c3cccs3)cc2[nH]1 [nocodazole]
survivin expression (Va15 cells [8]): increased survivin expression

N-acetyl-Asp-Glu-Val Asp-aldehyde [Ac-DEVD-CHO]
AMC cleavage in lysate with caspase-3 inhibitor added (Vm10 cells [6]; Vm10 lysate, addition of Ac-DEVD-CHO): negligible AMC cleavage
